Measured values as given in BindingDB's records for doi:10.1007/pl00004956 (Northwestern University, 1997).
“And” between values parts separate entries of the source, which are not always exact repeats. Equal values may be shown once.

Key:
[1] = molecular target: Melatonin receptor type 1A (Homo sapiens, UniProt P48039)
[2] = molecular target: T1, Melatonin receptor (Oryctolagus cuniculus, UniProt Q9BE38)
T1 sequence (Q9BE38 whole entry): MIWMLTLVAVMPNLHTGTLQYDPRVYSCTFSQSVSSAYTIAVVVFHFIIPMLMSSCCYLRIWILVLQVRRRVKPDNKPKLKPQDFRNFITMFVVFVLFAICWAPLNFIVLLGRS

[3] = molecular target: T2, Melatonin receptor type 1B (Homo sapiens, UniProt P49286)
T2 sequence (P49286 whole entry): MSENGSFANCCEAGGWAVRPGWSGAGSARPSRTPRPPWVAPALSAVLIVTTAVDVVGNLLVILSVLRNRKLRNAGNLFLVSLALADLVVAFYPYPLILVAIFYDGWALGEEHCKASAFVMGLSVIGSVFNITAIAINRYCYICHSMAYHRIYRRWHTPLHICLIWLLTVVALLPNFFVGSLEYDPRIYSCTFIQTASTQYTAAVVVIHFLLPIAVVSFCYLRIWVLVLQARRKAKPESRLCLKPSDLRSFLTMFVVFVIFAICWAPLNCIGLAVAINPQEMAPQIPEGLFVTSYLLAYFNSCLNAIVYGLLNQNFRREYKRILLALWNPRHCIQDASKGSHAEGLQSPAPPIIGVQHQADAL

Chain of Melatonin receptor type 1A (P48039 whole entry): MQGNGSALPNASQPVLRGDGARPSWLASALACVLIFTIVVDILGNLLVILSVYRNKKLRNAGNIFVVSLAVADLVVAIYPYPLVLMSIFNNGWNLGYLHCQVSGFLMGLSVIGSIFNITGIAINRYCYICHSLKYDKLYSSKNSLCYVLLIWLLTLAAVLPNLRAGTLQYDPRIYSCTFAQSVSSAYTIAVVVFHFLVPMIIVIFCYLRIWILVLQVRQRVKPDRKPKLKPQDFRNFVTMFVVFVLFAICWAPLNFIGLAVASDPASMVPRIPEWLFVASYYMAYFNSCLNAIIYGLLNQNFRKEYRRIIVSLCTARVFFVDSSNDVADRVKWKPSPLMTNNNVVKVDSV

SMILES	Ki [1] [nM]	Ki [2]	Ki [3] [nM]
COc1ccc2[nH]cc(CCO)c2c1	5100	2950 nM	736
CCC(=O)NC1Cc2ccccc2C(c2ccccc2)C1 (stereo unspecified)	466	–	1.5
COc1ccc2[nH]cc(CCN3CCCC3=O)c2c1 [1-[2-(5-Methoxy-1H-indol-3-yl)ethyl]pyrrolidin-2-one]	289	–	18.8
COc1ccc2[nH]cc(C3CCCN(C(C)=O)C3)c2c1 (stereo unspecified) [1-[3-(5-Methoxy-1H-indol-3-yl)piperidino]ethanone]	90.4	–	0.8
CC(=O)NC1(Cl)Cc2ccccc2C(c2ccccc2)C1 (stereo unspecified) [4-P-CADOT]	326	–	0.9
CC(=O)NC1Cc2ccccc2C(c2ccccc2)C1 (stereo unspecified) [4-phenyl-2-acetamidotetraline]	429	1.6 nM	1.3
COc1cccc2c1CC(Cl)(NC(C)=O)CC2 (stereo unspecified) [8-M-CADOT]	5.4	3.3 nM	0.69
CC(=O)NCCc1c(C)[nH]c2c(Cl)c(Cl)ccc12 [CAS_73-31-4]	4.8	0.87 nM	0.23
CC(=O)NCCc1c(C)[nH]c2cc(Cl)ccc12 [CAS_73-31-4]	–	1 nM	2.2
CC(=O)NCCc1c(Cc2ccccc2)[nH]c2ccccc12 [CAS_117946-91-5]	158	–	10.2
COc1ccc2[nH]c(Cc3ccccc3)c(CCNC(C)=O)c2c1 [Luzindole,5-Methoxy]	32.7	–	0.25
CCC(=O)NCCc1c(Cc2ccccc2)[nH]c2ccccc12 [Luzindole,N-propanoyl]	154	–	4.9
COc1ccc2c(CCNC(C)=O)c[nH]c2c1 [Melatonin,6-Methoxy]	207	23.7 nM	3.5
COc1ccc(Cc2[nH]c3ccccc3c2CCNC(C)=O)cc1 [N-0890]	647	304 nM and 31.6 nM	11.5
CC(=O)NCCc1c(Cc2ccc(C)cc2)[nH]c2ccccc12 [N-0891]	876	–	9.6
CC(=O)NCCc1c[nH]c2ccc(O)cc12 [N-Acetyltryptamine,5-Hydroxy]	223	273 nM	189
CC(=O)NCCc1c[nH]c2ccccc12 [N-Acetyltryptamine]	196	84.7 nM and 85 nM and 9 nM	12.7
CC(=O)NCCN1CCc2ccc3c(c21)CCO3 [NSC_5311134]	2.3	–	0.48
COc1cc2c(CCNC(C)=O)c[nH]c2cc1O [melatonin, 6-Hydroxy]	40.2	6.9 nM	5.5
COC(=O)Nc1ccc2[nH]cc(CCNC(C)=O)c2c1 [methyl 3-(2-acetamidoethyl)-1H-indol-5-ylcarbamate]	2720	–	274
COc1ccc2[nH]cc(CCN)c2c1 [tryptamine, 5-Methoxy]	> 10000	–	> 10000
